Test: excess molar enthalpy (molar enthalpy of mixing); xn = mol fraction of the nth substance listed
Conditions: Liquid, Flow calorimetry

COC(C)=O [methyl ethanoate] + CCCCO
excess molar enthalpy [kcal/mol]
Conditions | 5000 kPa | 10000 kPa
298.15 K, x1 = 0.05 | 0.0776 | 0.077
298.15 K, x1 = 0.1 | 0.145 | 0.144
298.15 K, x1 = 0.149 | 0.201 | 0.2
298.15 K, x1 = 0.199 | 0.248 | –
298.15 K, x1 = 0.201 | – | 0.249
298.15 K, x1 = 0.249 | 0.287 | –
298.15 K, x1 = 0.251 | – | 0.288
298.15 K, x1 = 0.3 | 0.32 | 0.318
298.15 K, x1 = 0.349 | 0.343 | –
298.15 K, x1 = 0.351 | – | 0.343
298.15 K, x1 = 0.399 | 0.359 | –
298.15 K, x1 = 0.401 | – | 0.36
298.15 K, x1 = 0.449 | – | 0.369
298.15 K, x1 = 0.45 | 0.37 | –
298.15 K, x1 = 0.5 | – | 0.372
298.15 K, x1 = 0.501 | 0.372 | –
298.15 K, x1 = 0.549 | – | 0.368
298.15 K, x1 = 0.55 | 0.368 | –
298.15 K, x1 = 0.599 | – | 0.358
298.15 K, x1 = 0.6 | 0.359 | –
298.15 K, x1 = 0.65 | – | 0.34
298.15 K, x1 = 0.651 | 0.341 | –
298.15 K, x1 = 0.699 | 0.316 | –
298.15 K, x1 = 0.701 | – | 0.314
298.15 K, x1 = 0.751 | 0.284 | 0.284
298.15 K, x1 = 0.8 | – | 0.244
298.15 K, x1 = 0.801 | 0.244 | –
298.15 K, x1 = 0.851 | 0.194 | 0.196
298.15 K, x1 = 0.899 | 0.141 | 0.141
298.15 K, x1 = 0.951 | 0.0726 | 0.0726
308.15 K, x1 = 0.047 | – | 0.0732
308.15 K, x1 = 0.098 | – | 0.147
308.15 K, x1 = 0.146 | – | 0.208
308.15 K, x1 = 0.193 | – | 0.257
308.15 K, x1 = 0.243 | – | 0.301
308.15 K, x1 = 0.291 | – | 0.335
308.15 K, x1 = 0.343 | – | 0.363
308.15 K, x1 = 0.39 | – | 0.382
308.15 K, x1 = 0.44 | – | 0.395
308.15 K, x1 = 0.492 | – | 0.398
308.15 K, x1 = 0.541 | – | 0.396
308.15 K, x1 = 0.591 | – | 0.385
308.15 K, x1 = 0.641 | – | 0.369
308.15 K, x1 = 0.692 | – | 0.344
308.15 K, x1 = 0.744 | – | 0.309
308.15 K, x1 = 0.794 | – | 0.267
308.15 K, x1 = 0.896 | – | 0.158
308.15 K, x1 = 0.947 | – | 0.0845

COC(C)=O [methyl ethanoate] + CCCO
excess molar enthalpy [kcal/mol]
Conditions | 298.15 K | 333.15 K
5000 kPa, x1 = 0.051 | 0.0748 | –
5000 kPa, x1 = 0.099 | 0.143 | –
5000 kPa, x1 = 0.149 | 0.201 | –
5000 kPa, x1 = 0.199 | 0.248 | –
5000 kPa, x1 = 0.251 | 0.287 | –
5000 kPa, x1 = 0.3 | 0.316 | –
5000 kPa, x1 = 0.349 | 0.338 | –
5000 kPa, x1 = 0.4 | 0.354 | –
5000 kPa, x1 = 0.451 | 0.363 | –
5000 kPa, x1 = 0.501 | 0.364 | –
5000 kPa, x1 = 0.551 | 0.358 | –
5000 kPa, x1 = 0.6 | 0.347 | –
5000 kPa, x1 = 0.65 | 0.33 | –
5000 kPa, x1 = 0.701 | 0.305 | –
5000 kPa, x1 = 0.749 | 0.273 | –
5000 kPa, x1 = 0.8 | 0.236 | –
5000 kPa, x1 = 0.85 | 0.191 | –
5000 kPa, x1 = 0.899 | 0.136 | –
5000 kPa, x1 = 0.951 | 0.0711 | –
10000 kPa, x1 = 0.051 | 0.0813 | 0.0961
10000 kPa, x1 = 0.099 | 0.145 | 0.168
10000 kPa, x1 = 0.149 | 0.202 | –
10000 kPa, x1 = 0.15 | – | 0.232
10000 kPa, x1 = 0.199 | 0.248 | –
10000 kPa, x1 = 0.2 | – | 0.287
10000 kPa, x1 = 0.25 | 0.287 | 0.329
10000 kPa, x1 = 0.3 | 0.316 | 0.363
10000 kPa, x1 = 0.349 | 0.337 | –
10000 kPa, x1 = 0.35 | – | 0.389
10000 kPa, x1 = 0.399 | 0.353 | 0.408
10000 kPa, x1 = 0.448 | – | 0.418
10000 kPa, x1 = 0.45 | 0.361 | –
10000 kPa, x1 = 0.5 | 0.362 | 0.422
10000 kPa, x1 = 0.548 | – | 0.419
10000 kPa, x1 = 0.55 | 0.357 | –
10000 kPa, x1 = 0.599 | 0.346 | 0.405
10000 kPa, x1 = 0.649 | 0.33 | –
10000 kPa, x1 = 0.65 | – | 0.384
10000 kPa, x1 = 0.7 | 0.305 | 0.355
10000 kPa, x1 = 0.749 | 0.274 | –
10000 kPa, x1 = 0.751 | – | 0.317
10000 kPa, x1 = 0.799 | 0.237 | –
10000 kPa, x1 = 0.801 | – | 0.271
10000 kPa, x1 = 0.849 | 0.189 | –
10000 kPa, x1 = 0.85 | – | 0.215
10000 kPa, x1 = 0.899 | 0.135 | 0.15
10000 kPa, x1 = 0.949 | – | 0.0751
10000 kPa, x1 = 0.951 | 0.0683 | –

— the NIST ThermoML archive (doi:10.1021/je050175u)
